Results: patent US10633374B2, “Small molecule based antibody-recruiting compounds for cancer treatment” (YALE UNIVERSITY, priority 2015, dated 2020)

How the values were obtained:
recombinant uPAR = biological target: T1, recombinant uPAR (Homo sapiens, UniProt Q03405); test: Fluorescence quenching titration of ARM-U2 derivatives with uPAR; format: binding; settings: fluorescence titration of 100 nM derivative with increasing uPAR; read-out: Kd, solution equilibrium dissociation constant with uPAR
T1 construct: purchased R&D systems
T1 sequence (Q03405 23-305): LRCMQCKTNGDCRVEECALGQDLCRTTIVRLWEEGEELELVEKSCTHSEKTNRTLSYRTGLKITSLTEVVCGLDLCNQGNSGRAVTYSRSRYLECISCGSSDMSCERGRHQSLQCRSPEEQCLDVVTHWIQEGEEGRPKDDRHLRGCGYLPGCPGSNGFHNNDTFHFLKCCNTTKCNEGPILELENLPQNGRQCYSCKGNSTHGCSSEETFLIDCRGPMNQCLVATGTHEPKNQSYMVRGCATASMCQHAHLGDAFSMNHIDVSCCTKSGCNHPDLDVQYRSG
Experimental: Selected ARM-U2 derivatives were assayed for their ability to bind recombinant uPAR using a fluorescence quenching assay. […] Increasing concentrations of recombinant uPAR were mixed with each compound containing aliquot and the fluorescence of the solution measured following 1 h equilibration times. […] To confirm that the observation of uPAR dependent fluorescence quenching was indeed due to specific binding to uPAR and to validate ARM-U2 binding to uPAR specifically via the uPA binding site, a direct binding ELISA assay was developed. In this assay, clear 96-well high-binding plates from CoStar, were loaded with 100 μl/well of 50 nM recombinant uPAR 807-UK-100-CF from R&D systems prepared from a 100 μg/ml (approx. 2.1 μM) stock of uPAR in PBS and left overnight at room temperature to equilibrate. Following equilibration, the plate was washed with wash buffer 1× (400 μl/well of 0.05% Tween/PBS), blotted dry and blocked for 1 hr with 300 ul/well of 2% BSA/PBS. Following blocking, the plate was washed with 400 ul of the wash buffer and blotted dry. […] The absorbance at 450 nm was measured using an in-house Perkin-Elmer fluorescence plate reader.
All ARM-U2 derivatives were assessed for their ability to bind selectively to recombinant uPAR in vitro using a competitive ELISA binding assay. […] Selective binding to uPAR by ARM-U2 at the uPA binding site competes with uPAR-uPA binding which is required for a positive UV 450 nm absorbance signal. Increasing concentrations of ARM-U2 displace increasing amounts of uPAR from uPA which is detected by anti-uPAR/biotin labeled antibodies followed by avidin-HRP. The sigmoidal binding isotherm of absorbance at 450 nm vs log ARM-U2 concentration can then by fit by non-linear regression analysis to obtain the IC50 for ARM-U2/uPAR binding (Equation S2) which can then be translated into a KI for ARM-U2/uPAR binding using a competitive binding model adapted from the Cheng-Prusoff equation relating KI to IC50 (Equation S3). […]

uPAR (uPA binding site) = biological target: T2, uPAR (uPA binding site) (Homo sapiens, UniProt Q03405); test: Competitive ELISA uPAR binding assay (immobilized urokinase); settings: at the uPA binding site
T2 construct: purchased R&D systems
T2 sequence (Q03405 23-305): as above
Experimental: The affinity of ARM-U2 derivatives differing in both the length of the DNP-linker substituted at position 2 of ring C and the display of negative charge density (FIG. 8, Table 1) for uPAR were assayed using a competitive ELISA binding assay. The assay involves the immobilization of urokinase, a natural high affinity ligand for uPAR followed by the addition of a fixed concentration of recombinant uPAR protein and increasing concentrations of ARM-U2 which competes with urokinase for binding to the uPA binding site of uPAR. Following several washing steps, the amount of uPAR bound is quantified by a biotinylated anti-uPAR antibody and avidin-HRP and can be fit to a competitive binding model allowing for the extraction of the uPAR/ARM-U2 Kd.
All ARM-U2 derivatives were assessed for their ability to bind selectively to recombinant uPAR in vitro using a competitive ELISA binding assay. DMSO stock solutions of each ARM-U2 derivative stored at −20° C. were titrated into wells pre-coated with human urokinase (isolated from human urine, ProSpec 1 mg/ml deI water 18.5 μM) in the presence of uPAR. Selective binding to uPAR by ARM-U2 at the uPA binding site competes with uPAR-uPA binding which is required for a positive UV 450 nm absorbance signal. Increasing concentrations of ARM-U2 displace increasing amounts of uPAR from uPA which is detected by anti-uPAR/biotin labeled antibodies followed by avidin-HRP. The sigmoidal binding isotherm of absorbance at 450 nm vs log ARM-U2 concentration can then by fit by non-linear regression analysis to obtain the IC50 for ARM-U2/uPAR binding (Equation S2) which can then be translated into a KI for ARM-U2/uPAR binding using a competitive binding model adapted from the Cheng-Prusoff equation relating KI to IC50 (Equation S3). The ELISA experiments were performed as followed: To Corning high binding 96 well flat bottom plates was added 100 μl/well of 100 nM urokinase in sterile PBS. The plates were sealed and left to incubate at 4° C. overnight. The plates were then washed 1× with 200 μl wash buffer (PBS+0.05% Tween-20) and 1× with 400 μl wash buffer. The plates were blotted on paper towel and blocked for 1 h shaking at room temp with 300 μl of a solution of thermo superblock in PBS per well. Molecule dilutions into solutions of a fixed concentration (10 nM) of uPAR were prepared in 0.025% triton-X/PBS on a separate low binding plate during the blocking hour. The plates were again washed followed by the addition of 100 μl of the ARM-U2/uPAR solution with 0.1% final DMSO concentration. The solutions were mixed by multichannel pipette, sealed, and incubated for 2 h with shaking at room temperature. The plates were then washed 1× with 200 μl wash buffer (PBS+0.05% Tween-20) and 2× with 400 μl wash buffer. The plates were blotted on a paper towel followed by the addition of 100 μl/well of a solution of biotinylated anti-uPAR antibody in 1% BSA/PBS. (R&D Systems, 3.3 μl taken from 50 μg/250 μl-1000× stock) and incubation with shaking for 1 h at room temp. The plates were washed 1× with 200 μl wash buffer and 2× with 400 μl wash buffer and blotted on a paper towel. 100 μl of avidin-HRP (stock −500× from e-bioscience) were added per well, incubated 20 min with shaking at room temp followed by washing 1× with 200 μl wash buffer and 3× with 400 μl wash buffer. The plates were blotted dry with paper towel and 100 μl of TMB substrate was added to each well. The emergence of blue color was monitored and the reaction quenched with the addition of 50 μl of 2M sulfuric acid to each well followed by measuring the absorbance at 450 nm using a fluorescence plate reader. […]

immobilized uPAR = biological target: T3, immobilized uPAR (Homo sapiens, UniProt Q03405); test: Direct ELISA binding assay on immobilized uPAR
T3 construct: purchased R&D systems 807-UK-100-CF
T3 sequence (Q03405 23-305): as above
Experimental: Selected ARM-U2 derivatives were assayed for their ability to bind recombinant uPAR using a fluorescence quenching assay. The compounds stored at −20° C. as DMSO stocks were diluted into PBS aliquots at a fixed 50 nM concentration. Increasing concentrations of recombinant uPAR were mixed with each compound containing aliquot and the fluorescence of the solution measured following 1 h equilibration times. […] To confirm that the observation of uPAR dependent fluorescence quenching was indeed due to specific binding to uPAR and to validate ARM-U2 binding to uPAR specifically via the uPA binding site, a direct binding ELISA assay was developed. In this assay, clear 96-well high-binding plates from CoStar, were loaded with 100 μl/well of 50 nM recombinant uPAR 807-UK-100-CF from R&D systems prepared from a 100 μg/ml (approx. 2.1 μM) stock of uPAR in PBS and left overnight at room temperature to equilibrate. Following equilibration, the plate was washed with wash buffer 1× (400 μl/well of 0.05% Tween/PBS), blotted dry and blocked for 1 hr with 300 ul/well of 2% BSA/PBS. Following blocking, the plate was washed with 400 ul of the wash buffer and blotted dry. […] The absorbance at 450 nm was measured using an in-house Perkin-Elmer fluorescence plate reader.

anti-DNP antibodies = test: Affinity for anti-DNP antibodies; format: binding

Compound: O=C(O)c1cccc(Nc2cc(N3CCC[C@H](C(=O)NCCCOCCOCCOCCCNc4ccc([N+](=O)[O-])cc4[N+](=O)[O-])C3)c3noc4c3c2C(=O)c2ccccc2-4)c1 [1-ABT-1]
- Kd (recombinant uPAR): 275 nM
- uPAR binding affinity (order of magnitude) (uPAR (uPA binding site)): triple digit nanomolar binding affinity

Compound: O=C1c2ccccc2-c2onc3c(N4CCC[C@H](C(=O)NCCOCCOCCOCCOCCOCCOCCOCCNc5ccc([N+](=O)[O-])cc5[N+](=O)[O-])C4)cc(Nc4ccc(S(=O)(=O)O)cc4S(=O)(=O)O)c1c23 [6-ABT-2]
- Kd (recombinant uPAR): 66 nM
- binding to immobilized uPAR vs parent derivative (immobilized uPAR): much higher affinity than parent derivative 1-ABT-1

Compound: O=C1c2ccccc2-c2onc3c(N4CCC[C@@H](C(=O)NCCCOCCOCCOCCCNc5ncccn5)C4)cc(Nc4ccc(S(=O)(=O)O)cc4S(=O)(=O)O)c1c23 [6-ABT-4]
- affinity for anti-DNP antibodies (anti-DNP antibodies): no affinity for anti-DNP antibodies
